ChEMBL document CHEMBL1146010, “Synthesis and in vitro antimycobacterial activity of N1-nicotinoyl-3-(4'-hydroxy-3'-methyl phenyl)-5-[(sub)phenyl]-2-pyrazolines” (2006)
Converted amounts (≈) assume the structure as drawn.

How the values were obtained:
[1] = system: Mycobacterium tuberculosis; assay: Antimycobacterial activity against Mycobacterium tuberculosis H37Rv by agar dilution method; format: functional
Vero = assay: Cytotoxicity against Vero cell line upto 62.5 ug/ml after 72 hrs by MTT assay; format: functional, cell-based; conditions: Chlorocebus sabaeus

SMILES | MIC [1] [µM] | Activity (Vero)
NNC(=O)c1ccncc1 [ISONIAZID] | 0.73 (≈ 0.1 µg/mL) | 
Cc1cc(C2=NN(C(=O)c3ccncc3)C(c3ccc(Cl)cc3)C2)ccc1O (stereo not given) | 1.99 (≈ 0.78 µg/mL) | 
COc1ccc(C2CC(c3ccc(O)c(C)c3)=NN2C(=O)c2ccncc2)cc1OC (stereo not given) | 1.87 (≈ 0.781 µg/mL) | 
Cc1cc(C2=NN(C(=O)c3ccncc3)C(c3ccc(F)cc3)C2)ccc1O (stereo not given) | 0.27 (≈ 0.101 µg/mL) | Not toxic
Cc1cc(C2=NN(C(=O)c3ccncc3)C(c3cccc([N+](=O)[O-])c3)C2)ccc1O (stereo not given) | 15.5 (≈ 6.25 µg/mL) | 
COc1ccc(C2CC(c3ccc(O)c(C)c3)=NN2C(=O)c2ccncc2)c(OC)c1OC (stereo not given) | 3.93 (≈ 1.76 µg/mL) | 
Cc1cc(C2=NN(C(=O)c3ccncc3)C(c3ccccc3Cl)C2)ccc1O (stereo not given) | 0.26 (≈ 0.102 µg/mL) | Not toxic
Cc1cc(C2=NN(C(=O)c3ccncc3)C(c3c(Cl)cccc3Cl)C2)ccc1O (stereo not given) | 0.47 (≈ 0.2 µg/mL) | Not toxic
Cc1cc(C2=NN(C(=O)c3ccncc3)C(c3ccco3)C2)ccc1O (stereo not given) | 0.58 (≈ 0.201 µg/mL) | 
Cc1cc(C2=NN(C(=O)c3ccncc3)C(c3ccccc3)C2)ccc1O (stereo not given) | 8.73 (≈ 3.12 µg/mL) | 
Cc1cc(C2=NN(C(=O)c3ccncc3)C(c3ccc(N(C)C)cc3)C2)ccc1O (stereo not given) | 1.95 (≈ 0.781 µg/mL) | 
COc1ccc(C2CC(c3ccc(O)c(C)c3)=NN2C(=O)c2ccncc2)cc1 (stereo not given) | 16.1 (≈ 6.25 µg/mL) | 
